Measured values published in patent US4356186A, “Acetic acid derivatives and composition containing the same” (priority 1980, dated 1982).
Like-named read-outs stand apart in the source and are kept apart here.

Legend:
[1] = system: carrageenin-induced hind paw edema; assay: Anti-inflammatory activity (carrageenin-induced hind paw edema in rats); format: in vivo, Male Wistar rats; settings: for inhibition in vivo at 1 mg/kg / inhibition in vivo at 2 mg/kg / inhibition in vivo at 4 mg/kg / inhibition in vivo at 8 mg/kg / inhibition in vivo at 0.5 mg/kg / inhibition in vivo at 80 mg/kg / inhibition in vivo at 5 mg/kg / inhibition in vivo at 20 mg/kg / inhibition in vivo at 40 mg/kg / inhibition in vivo at 160 mg/kg / inhibition in vivo at 10 mg/kg: Rattus norvegicus, po; for inhibition in vivo at 1 mg/kg: 1 mg/kg p.o.; for inhibition in vivo at 4 mg/kg: 4 mg/kg p.o.; for inhibition in vivo at 8 mg/kg: 8 mg/kg p.o.; for inhibition in vivo at 0.5 mg/kg: 0.5 mg/kg p.o.; for anti-inflammatory activity compared with the known indomethacin / anti-inflammatory activity compared with the known aspirin: in words, from Table 1; for inhibition in vivo at 10 mg/kg: 10 mg/kg p.o.
Experimental: Anti-inflammatory activity (carrageenin-induced hind paw edema in rats)
The test was carried out in a similar manner as disclosed in Proc. Soc. Exptl.
Male Wistar rats, weighing 100-300 g, were used. A 1% aqueous carrageenin solution (0.1 ml) was administered subcutaneously into the hind foot pad of rats. Two and three hours after the carrageenin injection, the paw volume was measured and the swelling rate was calculated based on the paw volume before the carrageenin injection. The inhibitory rate was determined as compared with the average swelling rate of the control group to which only vehicle was administered. The test compounds were administered orally one hour before the carrageenin injection.

stomach ulcer = assay: Gastrointestinal ulcerogenicity; format: in vivo, Male Wistar rats; parameters: key to Average score of stomach ulcer: ulcer score 1 to 4, 4 = most severe ulcer; settings: after 6 hours; for Average score of stomach ulcer: score 1 to 4
Experimental: Gastrointestinal ulcerogenicity
The test was carried out in a similar manner as disclosed in Arzneim. Forsch., 19, 36 (1969).
Male Wistar rats, weighing 130-180 g, were used. After the rats were fasted for 24 hours, the test compound was orally administered one time. After 6 hours, the rats were killed and the stomach was removed. […] The degree of stomach ulcer was scored from 1 to 4, wherein 4 is the most severe ulcer. In Table 2, there are shown the average score of stomach ulcer in each dose and also the ratio of the number of rats having a score of stomach ulcer of 2 or more to total number of rats used.

[2] = 2 h, two hours, read-out: Inhibitory rate, two hours after the carrageenin injection
[3] = 2 h, 2 mg/kg p.o., two hours, read-out: Inhibitory rate, two hours after the carrageenin injection
[4] = 3 h, three hours, read-out: Inhibitory rate, three hours after the carrageenin injection
[5] = 3 h, 2 mg/kg p.o., three hours, read-out: Inhibitory rate, three hours after the carrageenin injection
[6] = 2 h, 80 mg/kg p.o., two hours, read-out: Inhibitory rate, two hours after the carrageenin injection
[7] = 3 h, 80 mg/kg p.o., three hours, read-out: Inhibitory rate, three hours after the carrageenin injection
[8] = 2 h, read-out: Inhibitory rate, two hours after the carrageenin injection
[9] = 3 h, read-out: Inhibitory rate, three hours after the carrageenin injection
[10] = 2 h, 40 mg/kg p.o., two hours, read-out: Inhibitory rate, two hours after the carrageenin injection
[11] = 3 h, 40 mg/kg p.o., three hours, read-out: Inhibitory rate, three hours after the carrageenin injection
[12] = 2 h, 5 mg/kg p.o., two hours, read-out: Inhibitory rate, two hours after the carrageenin injection
[13] = 3 h, 5 mg/kg p.o., three hours, read-out: Inhibitory rate, three hours after the carrageenin injection

## CC(C(N)=O)c1ccc2c(c1)SCC1CCCCC1C2=O (single isomer, unassigned) [R, 2-(6,6a,7,8,9,10,10a,11-Octahydro-11-oxodibenzo[b,e]thiepin-3-yl)propionamide-A]
[1]; [2]
  inhibition in vivo at 1 mg/kg: 29.3%
  inhibition in vivo at 4 mg/kg: 38.4%
  inhibition in vivo at 8 mg/kg: 43.6%
[1]; [3]
  inhibition in vivo at 2 mg/kg: 30.7%
[1]; [4]
  inhibition in vivo at 1 mg/kg: 24.7%
  inhibition in vivo at 4 mg/kg: 37.7%
  inhibition in vivo at 8 mg/kg: 36%
[1]; [5]
  inhibition in vivo at 2 mg/kg: 27.6%
Stomach ulcer; 8 mg/kg p.o.
  Number of rats having a score of stomach ulcer of 2 or more/total number of rats used: 0/3
  Average score of stomach ulcer: 0.00
Stomach ulcer; 16 mg/kg p.o.
  Number of rats having a score of stomach ulcer of 2 or more/total number of rats used: 4/6
  Average score of stomach ulcer: 1.67
Stomach ulcer; 32 mg/kg p.o.
  Number of rats having a score of stomach ulcer of 2 or more/total number of rats used: 3/3
  Average score of stomach ulcer: 2.33

## CC(C(=O)O)c1ccc2c(c1)OCC1CCCCC1C2=O (stereo not shown) [A, 2-(6,6a,7,8,9,10,10a,11-Octahydro-11-oxodibenz[b,e]oxepin-3-yl)propionicacid]
[1]; [2]
  inhibition in vivo at 0.5 mg/kg: 23.7%
  inhibition in vivo at 1 mg/kg: 34.3%
[1]; [3]
  inhibition in vivo at 2 mg/kg: 40.5%
[1]; [4]
  inhibition in vivo at 0.5 mg/kg: 17.4%
  inhibition in vivo at 1 mg/kg: 26.9%
[1]; [5]
  inhibition in vivo at 2 mg/kg: 32.6%
[1]
  anti-inflammatory activity compared with the known indomethacin: comparable or superior to that of the known indomethacin

## O=C(O)Cc1ccc2c(c1)OCC1CCCCC1C2=O (stereo not shown) [B, 6,6a,7,8,9,10,10a,11-Octahydro-11-oxodibenz[b,e]oxepin-3-acetic acid]
[1]; [2]
  inhibition in vivo at 1 mg/kg: 17.8%
[1]; [4]
  inhibition in vivo at 1 mg/kg: 7.8%
[1]
  anti-inflammatory activity compared with the known indomethacin: comparable or superior to that of the known indomethacin

## CC(C(=O)O)c1ccc2c(c1)C(=O)C1CCCCC1CO2 (stereo not shown) [C, 2-(6,6a,7,8,9,10,10a,11-Octahydro-11-oxodibenz[b,e]oxepin-2-yl)propionicacid]
[1]; [6]
  inhibition in vivo at 80 mg/kg: 27.9%
[1]; [7]
  inhibition in vivo at 80 mg/kg: 23.1%
[1]
  anti-inflammatory activity compared with the known aspirin: comparable or superior to that of the known aspirin

## COc1ccc2c(c1)c(CC(=O)O)c(C)n2C(=O)c1ccc(Cl)cc1 [Compound 1, Indomethacin, reference compound]
[1]; [8]
  inhibition in vivo at 2 mg/kg: 20.5%
  inhibition in vivo at 5 mg/kg: 42.4%
[1]; [9]
  inhibition in vivo at 2 mg/kg: 19.3%
  inhibition in vivo at 5 mg/kg: 36.3%
Stomach ulcer; 4 mg/kg p.o.
  Average score of stomach ulcer: 0.50
Stomach ulcer; 8 mg/kg p.o.
  Average score of stomach ulcer: 1.78
Stomach ulcer; 16 mg/kg p.o.
  Average score of stomach ulcer: 2.56

## CC(=O)Oc1ccccc1C(=O)O [Compound 2, Aspirin, reference compound]
[1]; [8]
  inhibition in vivo at 20 mg/kg: 14.1%
  inhibition in vivo at 40 mg/kg: 22.9%
  inhibition in vivo at 80 mg/kg: 30.8%
  inhibition in vivo at 160 mg/kg: 35.1%
[1]; [9]
  inhibition in vivo at 20 mg/kg: 9%
  inhibition in vivo at 40 mg/kg: 21.2%
  inhibition in vivo at 80 mg/kg: 25.9%
  inhibition in vivo at 160 mg/kg: 30.9%
Stomach ulcer; 20 mg/kg p.o.
  Number of rats having a score of stomach ulcer of 2 or more/total number of rats used: 0/6
  Average score of stomach ulcer: 0.83
Stomach ulcer; 40 mg/kg p.o.
  Number of rats having a score of stomach ulcer of 2 or more/total number of rats used: 3/6
  Average score of stomach ulcer: 1.33
Stomach ulcer; 60 mg/kg p.o.
  Number of rats having a score of stomach ulcer of 2 or more/total number of rats used: 5/6
  Average score of stomach ulcer: 2.33
Stomach ulcer; 80 mg/kg p.o.
  Number of rats having a score of stomach ulcer of 2 or more/total number of rats used: 5/6
  Average score of stomach ulcer: 3.33
Stomach ulcer; 160 mg/kg p.o.
  Number of rats having a score of stomach ulcer of 2 or more/total number of rats used: 6/6
  Average score of stomach ulcer: 4.00

## CC(C(=O)O)c1ccc2c(c1)C(=O)C1CCCCC1CS2 (stereo not shown) [D, 2-(6,6a,7,8,9,10,10a,11-Octahydro-11-oxodibenzo[b,e]thiepin-2-yl)propionicacid]
[1]; [10]
  inhibition in vivo at 40 mg/kg: 28.6%
[1]; [6]
  inhibition in vivo at 80 mg/kg: 34%
[1]; [11]
  inhibition in vivo at 40 mg/kg: 24.6%
[1]; [7]
  inhibition in vivo at 80 mg/kg: 27.1%
[1]
  anti-inflammatory activity compared with the known aspirin: comparable or superior to that of the known aspirin

## O=C(O)Cc1ccc2c(c1)SCC1CCCCC1C2=O (stereo not shown) [E, 6,6a,7,8,9,10,10a,11-Octahydro-11-oxodibenzo[b,e]thiepin-3-acetic acid]
[1]; [3]
  inhibition in vivo at 2 mg/kg: 26.3%
[1]; [5]
  inhibition in vivo at 2 mg/kg: 16.8%
[1]
  anti-inflammatory activity compared with the known indomethacin: comparable or superior to that of the known indomethacin

## CC(C(=O)O)c1ccc2c(c1)SCC1CCCCC1C2=O (stereo not shown) [G, 2-(6,6a,7,8,9,10,10a,11-Octahydro-11-oxodibenzo[b,e]thiepin-3-yl)propionicacid-B]
[1]; [2]
  inhibition in vivo at 10 mg/kg: 12%
[1]; 2 h, 20 mg/kg p.o., two hours, read-out: Inhibitory rate, two hours after the carrageenin injection
  inhibition in vivo at 20 mg/kg: 18.3%
[1]; [10]
  inhibition in vivo at 40 mg/kg: 33.2%
[1]; [6]
  inhibition in vivo at 80 mg/kg: 32.2%
[1]; [4]
  inhibition in vivo at 10 mg/kg: 7.1%
[1]; 3 h, 20 mg/kg p.o., three hours, read-out: Inhibitory rate, three hours after the carrageenin injection
  inhibition in vivo at 20 mg/kg: 11%
[1]; [11]
  inhibition in vivo at 40 mg/kg: 26.9%
[1]; [7]
  inhibition in vivo at 80 mg/kg: 30.2%
[1]
  anti-inflammatory activity compared with the known aspirin: comparable or superior to that of the known aspirin

## C=CCOC(=O)C(C)c1ccc2c(c1)SCC1CCCCC1C2=O (stereo not shown) [K, Allyl 2-(6,6a,7,8,9,10,10a,11-octahydro-11-oxodibenzo[b,e]thiepin-3-yl)propionate]
[1]; [3]
  inhibition in vivo at 2 mg/kg: 27%
[1]; [12]
  inhibition in vivo at 5 mg/kg: 34.3%
[1]; [5]
  inhibition in vivo at 2 mg/kg: 22.3%
[1]; [13]
  inhibition in vivo at 5 mg/kg: 33.5%

## CC(C(=O)OCC(=O)c1ccccc1)c1ccc2c(c1)SCC1CCCCC1C2=O (stereo not shown) [M, Phenacyl 2-(6,6a,7,8,9,10,10a,11-octahydro-11-oxodibenzo[b,e]thiepin-3-yl)propionate]
[1]; [12]
  inhibition in vivo at 5 mg/kg: 33.2%
[1]; [13]
  inhibition in vivo at 5 mg/kg: 26.6%

## CC(C(=O)OCCOCCO)c1ccc2c(c1)SCC1CCCCC1C2=O (stereo not shown) [N, 2-(2-Hydroxyethoxy)ethyl 2-(6,6a,7,8,9,10,10a,11-octahydro-11-oxodibenzo[b,e]thiepin-3-yl)propionate]
[1]; [3]
  inhibition in vivo at 2 mg/kg: 15.8%
[1]; [12]
  inhibition in vivo at 5 mg/kg: 43.9%
[1]; [5]
  inhibition in vivo at 2 mg/kg: 13.2%
[1]; [13]
  inhibition in vivo at 5 mg/kg: 28.1%

## CC(C(=O)OCCN1CCOCC1)c1ccc2c(c1)SCC1CCCCC1C2=O (stereo not shown) [Q, 2-Morpholinoethyl 2-(6,6a,7,8,9,10,10a,11-octahydro-11-oxodibenzo[b,e]thiepin-3-yl)propionate]
[1]; [3]
  inhibition in vivo at 2 mg/kg: 25.4%
[1]; [12]
  inhibition in vivo at 5 mg/kg: 28.9%
[1]; [5]
  inhibition in vivo at 2 mg/kg: 22.8%
[1]; [13]
  inhibition in vivo at 5 mg/kg: 22%

## CC(C(=O)NO)c1ccc2c(c1)SCC1CCCCC1C2=O (stereo not shown) [S, 2-(6,6a,7,8,9,10,10a,11-Octahydro-11-oxodibenzo[b,e]thiepin-3-yl)propionohydroxamic acid]
[1]; [3]
  inhibition in vivo at 2 mg/kg: 21.9%
[1]; [12]
  inhibition in vivo at 5 mg/kg: 31.5%
[1]; [5]
  inhibition in vivo at 2 mg/kg: 18.5%
[1]; [13]
  inhibition in vivo at 5 mg/kg: 29.9%

## CC(C(=O)NCC(=O)O)c1ccc2c(c1)SCC1CCCCC1C2=O (stereo not shown) [T, N-Carboxymethyl-2-(6,6a,7,8,9,10,10a,11-octahydro-11-oxodibenzo[b,e]thiepin-3-yl)propionamide]
[1]; [3]
  inhibition in vivo at 2 mg/kg: 19.9%
[1]; [12]
  inhibition in vivo at 5 mg/kg: 43.9%
[1]; [5]
  inhibition in vivo at 2 mg/kg: 15%
[1]; [13]
  inhibition in vivo at 5 mg/kg: 28.1%
